Measurements as given in patent US7087375B1, “Method for determining the mechanism of HIV RT inhibitors” (priority 2000, dated 2006).
“And” between values parts separate entries of the source, which are not always exact repeats. Identical values can stand only once.

Key:
[1] = test system: HXB2 site-directed mutant V75T; format: cell-based; conditions: virus V75T
wild type HXB2 virus = experiment: HIV drug susceptibility assay (recombinant virus, MT-4 cells); conditions: for IC50: Human immunodeficiency virus 1, HXB2, MT4, read-out: mean IC50 for the wild type control virus
Description: Phenotypic susceptibility of these viable recombinant viruses to nucleoside analogs was then determined. […] Fold resistance values were calculated by dividing the mean 50% inhibitory concentration (IC50) for a recombinant virus from a mutant clone by the mean IC50 for recombinant wild type virus (HXB2).

[2] = test system: HXB2 site-directed mutant T69S-SS; format: cell-based; conditions: virus T69S-SS
[3] = test system: HXB2 site-directed mutant M41L, D67N, K70R, M184V, T215Y; format: cell-based; conditions: virus M41L
[4] = test system: HXB2 site-directed mutant Q151M; format: cell-based; conditions: virus Q151M
[5] = test system: HXB2 site-directed mutant M41L, T69S-AG, T215Y; format: cell-based; conditions: virus M41L
[6] = test system: HXB2 site-directed mutant M41L, T69S-SG, T215Y; format: cell-based; conditions: virus M41L
[7] = test system: HXB2 site-directed mutant T69S-AG; format: cell-based; conditions: virus T69S-AG
[8] = test system: HXB2 site-directed mutant M41L, M184V, T215Y; format: cell-based; conditions: virus M41L
[9] = test system: HXB2 site-directed mutant D67N, K70R; format: cell-based; conditions: virus D67N
[10] = test system: HXB2 site-directed mutant T69S-SG; format: cell-based; conditions: virus T69S-SG
[11] = test system: HXB2 site-directed mutant M41L, T69S-SS, T215Y; format: cell-based; conditions: virus M41L
[12] = test system: HXB2 site-directed mutant M41L, T215Y; format: cell-based; conditions: virus M41L

Row | Compound | Fold resistance in IC50 relative to HXB2 [1] [fold] | IC50 (wild type HXB2 virus) [nM] | Fold resistance in IC50 relative to HXB2 [2] [fold] | Fold resistance in IC50 relative to HXB2 [3] | Fold resistance in IC50 relative to HXB2 [4] [fold] | Fold resistance in IC50 relative to HXB2 [5] [fold] | Fold resistance in IC50 relative to HXB2 [6] [fold] | Fold resistance in IC50 relative to HXB2 [7] | Fold resistance in IC50 relative to HXB2 [8] | Fold resistance in IC50 relative to HXB2 [9] | Fold resistance in IC50 relative to HXB2 [10] | Fold resistance in IC50 relative to HXB2 [11] | Fold resistance in IC50 relative to HXB2 [12] | Virus Assay fold resistance (wild type HXB2 virus; wild type HXB2 virus (reference)) [fold]
1 | Nc1ccn([C@H]2CC[C@@H](CO)O2)c(=O)n1 [ddC, zalcitabine] | 3.0 | 710 | 3.2 | 5.1 fold | 5.4 | 2.5 | 2.8 | 2.8 fold | 5.0 fold | 1.3 fold | 1.7 fold | 1.5 fold | 2.5 fold | –
2 | Cc1cn([C@H]2C[C@H](N=[N+]=[N-])[C@@H](CO)O2)c(=O)[nH]c1=O [AZT, zidovudine] | 1.4 | 12 | – | 6.4 fold and 6.4 (+/−1.5) fold | 2.1 | >96 | >96 | 7.0 fold and 7.0 (+/−4) fold | 5.2 fold and 5.2 (+/−1.5) fold | 11 fold and 11.2 fold | 8.1 fold and 8.1 (+/−4) fold | 12 fold and 12.0 fold and 12.0 (+/−2) fold | 26 fold and 26.2 fold and 26.2 (+/−10) fold | 1.0
